Data as given in patent publication US20070191449A1, “Use of Benzo-Heteroaryl Sulfamide Derivatives for the Treatment of Depression” (priority 2006, published 2007).

Assays:
Male NMRI mice = experiment: Mouse Tail Suspension In Vivo Assay; details: for Immobilization Time (sec); (mean ± SEM): single dose 30 min prior to tail suspension
Method: The tail suspension test (TST) is an acute test of anti-depressant activity.
Male NMRI mice (25-30 g; n=13-15 mice per dose) were given a single dose of vehicle (aqueous solution of 1 equivalent tartaric acid+0.45% NaCl+10% cyclodextrin, i.p.), imipramine (20 mg/kg, i.p. in an aqueous solution of 0.9% NaCl) or Compound #1 (at 5, 10, 20, 40 or 80 mg/kg, i.p.) 30 min prior to tail suspension. In this test, the mice were submitted to an unpleasant and inescapable situation (hanging by the tail) for 6 min. Once suspended, motor activity diminished rapidly and the mice became immobile. A compound was considered active as an antidepressant in this model, when there was a reduction in immobility time. Viewpoint video-tracking software was utilized to record immobility time.
Therefore, a compound which is not active in this model may nonetheless be active as an antidepressant.

submissive rats = experiment: Dominant-Submissive Competition: Reduction of Submissive Behavior Model (RSBM); format: in vivo, Male Sprague Dawley rats
Method: Dominance and submissiveness, defined in a competition test and measured as the relative success of two food-restricted rats to gain access to a feeder, form a behavioral paradigm—the Dominant Submissive Relationship (DSR). This paradigm results in two models which are predictive of ability of test compounds (drugs) to treat mood disorders.
Test compounds are evaluated for either their ability to inhibit the dominant behavior of rats taking food at the expense of an opponent (reduction of dominant behavior model or RDBM) and thus their potential as treatments for mania; or for their ability to increase the competitive behavior of submissive rats losing such encounters (reduction of submissive behavior model or RSBM) and thus their potential as treatments for depression; (Malatynska, E., and Knapp, R. J., Neuroscience and Biobehavioral Review, 29 (2005) 715-737). […]
The basic testing apparatus consisted of two chambers connected with a tunnel only large enough to allow one rat to pass through at a time. […] During the five-minute daily sessions, time spent in the feeder zone by each rat was recorded by the video tracking software and saved into a text file.
The test began with a random assignment of rats into pairs. […] The time spent in the feeder zone by each animal was recorded. […]

[1] = Drug concentration in terminal plasma and brain of RSBM rats (LC-MS-MS); format: in vivo, Male Sprague Dawley rats; details: submissive rats treated with increasing doses (6, 30, 60 mg/kg p.o. BID)
Text: Rats were housed four per cage. Access to food was restricted to one hour per day after testing on Monday through Thursday. After testing on Friday, rats had free access to food until being fasted again on Sunday. At no time were the rats deprived of water. The food deprivation periods used had little effect on weight gain as the average weight of rats was about 300 g at the end of the study. At the conclusion of experiment rats were sacrificed by decapitation, the trunk blood and brains were collected for in vitro experiments and drug concentration measurements.
Terminal blood samples (0.5-1.0 mL) were collected post experiment into heparinized tubes. Blood samples were centrifuged for cell removal, and 200 μL of plasma supernatant was then transferred to a clean vial, placed on dry ice, and subsequently stored in a −80° C. freezer prior to analysis. Two hundred microliters of acetonitrile containing internal standard was added to 100 μL of plasma or brain tissue to precipitate proteins and/or tissue residues. Samples were centrifuged and supernatant removed for analysis by liquid chromatography-triple quadruple mass spectrometry (LC-MS-MS). […] Calibration standards were prepared in the range of 0.01 to 10 μM for quantitation. […]

Male C57BL/6 mice = experiment: Mouse Forced Swim Test; format: in vivo; details: not statistically significant (p=0.19)
Method: The forced swim test (FST) is an acute test of anti-depressant activity. Note that in this test, antidepressant-like compounds such as tricyclics, MAO inhibitors, SSRIs and others show activity, although the level of measured activity can vary with strain differences.
Male C57BL/6 mice (˜25 g; n=10 mice per dose) were given a single dose of vehicle (an aqueous solution of 1 equivalent tartaric acid+0.45% NaCl+10% cyclodextrin, s.c.), Compound #1 (at 5, 10, 20, 40 or 80 mg/kg, s.c.) or imipramine (10 mg/kg, i.p. in an aqueous solution of 0.9% NaCl) 30 min prior to entrance into the swim chamber. In this test, mice were placed in a water-filled cylinder in which they were unable to escape or touch the bottom of the chamber for 6 min. Once immersed in water, motor activity diminished rapidly and the mice became immobile. Viewpoint video-tracking software was utilized to record immobility time. Other common behaviors such as swimming and climbing activity were not measured in this study.

| SMILES | Immobilization Time (sec); (mean ± SEM) (Male NMRI mice; 5 mpk i.p.) [s] | Immobilization Time (sec); (mean ± SEM) (Male NMRI mice; 10 mpk i.p.) [s] | Immobilization Time (sec); (mean ± SEM) (Male NMRI mice; 20 mpk i.p.) [s] | Immobilization Time (sec); (mean ± SEM) (Male NMRI mice; 40 mpk i.p.) [s] | Immobilization Time (sec); (mean ± SEM) (Male NMRI mice; 80 mpk i.p., increase resembled sedation (p=0.003)) [s] | Immobilization Time (sec); (mean ± SEM) (Male NMRI mice; 80 mpk i.p., increase resembled sedation (p=0.003), listed as #1) [s] | statistical significance of the reduction of submissive behavior (submissive rats; after 17 days of treatment with 60 mg/kg, p<0.01) | reduction of submissive behavior (submissive rats; submissive rats treated p.o. BID at 6, 30 or 60 mg/kg) | exposure in plasma and brain [1] | decrease in immobility time (Male C57BL/6 mice; 10 mg/kg i.p. versus vehicle (152 sec)) [%] | immobility time (Male C57BL/6 mice; 10 mg/kg i.p., vehicle=152 sec) [s] | decrease in immobility time (Male NMRI mice; 20 mg/kg i.p. versus vehicle (71 sec), p=0.0004) [%] | Immobilization Time (sec); (mean ± SEM) (Male NMRI mice; 20 mpk i.p., listed as imipramine) [s] |
| --- | --- | --- | --- | --- | --- | --- | --- | --- | --- | --- | --- | --- | --- |
| NS(=O)(=O)NCc1csc2ccccc12 [Compound #1, N-(benzorblthien-3-vimethyl)-sulfamide] | 66.1 ± 10.1 | 96.4 ± 12.4 | 110.1 ± 15.8 | 100.5 ± 13.9 | 160 | 160.4 ± 10.7 | statistically significant | reduced submissive behavior in a dose-dependent manner | linear increase in exposure both in plasma and brain |  |  |  |  |
| CN(C)CCCN1c2ccccc2CCc2ccccc21 [Imipramine, reference compound] |  |  | 18.0 ± 5.8 |  |  |  |  |  |  | 20 | 122 | 75 | 18 |
